≈ marks a conversion by molar mass, not a printed value.
How the values were obtained:
S. aureus strain AG461 [1] = test: Time-kill experiment, S. aureus AG461 (FIG. 1); format: cell-based; conditions: 2 and 16 μg/ml (1x and 8x MIC), three hours of contact
Method: The bactericidal activity of lysostaphin against S. aureus was also studied by means of time-kill experiments. In one experiment of this type, S. aureus strain AG461, a methicillin-resistant clinical isolate from Genoa, Italy, was inoculated into Mueller-Hinton broth (Difco) and grown at 37° C. with gentle shaking until it reached approximately 10^8 viable cells per ml (CFU/ml), as estimated from the absorbance of the culture at 600 nm. The culture was then diluted with fresh broth to approximately 10^6 CFU/ml and 5 ml aliquots were placed in several different flasks for exposure to different concentrations of antibacterial agents. Incubation was continued, with gentle shaking, at 37° C., and samples were withdrawn at intervals for determination of viable cells. Serial 10-fold dilutions of the samples were made in sterile saline (0.9% NaCl in distilled water) and duplicate 0.1 ml aliquots of appropriate dilutions were plated on Tryptic Soy agar plates (Remel) using the agar inclusion method. (In this method, the aliquot to be plated is added to 2.5 ml of top agar, which is mixed and poured onto a plate. Top agar consisted of molten Tryptic Soy agar (Difco) diluted 2-fold with Difco Tryptic Soy broth to give a final agar concentration of 0.75%, w/v.) The plates were incubated for 24-48 hours at 36° C. and the colonies were counted manually. […]

S. aureus Smith = test: Acute S. aureus infection model in mice (survival); format: in vivo
Method: The efficacy of lysostaphin was compared to that of vancomycin in an acute infection model in mice. S. aureus Smith was cultured overnight, with moderate agitation, in Veal Infusion broth (Difco) and diluted in broth containing 5% hog gastric mucin (Difco). Male Swiss-Webster mice (Taconic Farms, Germantown, N.Y.) weighing approximately 20 grams were infected intraperitoneally with 10^5-10^6 viable cells, approximately tenfold the inoculum that reproducibly killed all untreated animals within 48 h. There were six mice in each treatment group. Lysostaphin was administered intravenously (in 0.1 ml 5% dextrose for injection) or subcutaneously (in 0.2 ml), within 10 min of infection. Vancomycin was administered subcutaneously.

[2] = tested on: methicillin-resistant VISA strain of S. aureus; test: Vancomycin MIC for the laboratory-selected VISA strain; format: cell-based; conditions: Staphylococcus aureus, variant strain selected after cycles of growth in glycopeptide-containing medium
Method: Strains that are both methicillin-resistant and resistant to vancomycin are a newly emerging problem. A variant strain of this type was selected after cycles of growth in glycopeptide-containing medium. The vancomycin MIC for the resulting strain was 8 μg/ml, as reported also for naturally occurring VISA strains isolated from patients in the U.S. and Japan. (Centers for Disease Control and Prevention, Morbidity and Mortality Weekly Report 1997; 46:813-815). Staphylococcal isolates are considered to be susceptible to vancomycin if the MIC is less than or equal to 4 μg/ml and to be completely resistant if the MIC is greater than or equal to 32 μg/ml (National Committee for Clinical Laboratory Standards, 1993. Approved Standard M2-A5. Performance standards for antimicrobial disk susceptibility tests—Fifth edition. National Committee for Clinical Laboratory Standards, Villanova, Pa.)

S. aureus strain AG461 [3] = conditions: strain AG461 (methicillin-resistant clinical isolate)
Excerpt: The different concentrations of lysostaphin and vancomycin used were one and eight times their respective MIC.

S. aureus = test: MIC by broth macrodilution in glass tubes; format: cell-based
Method: In this experiment, MICs were determined by broth macrodilution in 1 ml final volumes in glass tubes. Otherwise, the methodology was as described above.

Compound: CN[C@H](CC(C)C)C(=O)N[C@H]1C(=O)N[C@@H](CC(N)=O)C(=O)N[C@H]2C(=O)N[C@H]3C(=O)N[C@H](C(=O)N[C@H](C(=O)O)c4cc(O)cc(O)c4-c4cc3ccc4O)[C@H](O)c3ccc(c(Cl)c3)Oc3cc2cc(c3O[C@@H]2O[C@H](CO)[C@@H](O)[C@H](O)[C@H]2O[C@H]2C[C@](C)(N)[C@H](O)[C@H](C)O2)Oc2ccc(cc2Cl)[C@H]1O [vancomycin, reference compound]
- bactericidal action (killing of the bacteria) (S. aureus strain AG461 [1]): very little killing
- % survival (S. aureus Smith; 5 mg/kg sc): 100%
- MIC [2]: 8 µg/mL (≈ 5.52 µM)
- MIC (lower time-kill concentration stated to be one times MIC) (S. aureus strain AG461 [3]): 2 µg/mL (≈ 1.38 µM)

Compound: Gly218Asp: lysostaphin variant with a single change, glycine to aspartic acid, at position 218 of the mature protein
- % survival (S. aureus Smith; Table 4 experiment, dose 0.08 mg/kg): 0%
- % survival (S. aureus Smith; Table 4 experiment, dose 0.16 mg/kg): 17%
- % survival (S. aureus Smith; Table 4 experiment, dose 0.31 mg/kg): 33%
- % survival (S. aureus Smith; Table 4 experiment, dose 0.63 mg/kg): 83%
- MIC (S. aureus; strain AG402 (clinical isolate)): .06 µg/mL
- MIC (S. aureus; strain AG404 (clinical isolate, methicillin-resistant)): .06 µg/mL
- MIC (S. aureus; strain AG414): .03 µg/mL
- MIC (S. aureus; strain AG417): .03 µg/mL
